Data published in patent publication US12285501B2, “Compound targeting norepinephrine transporter” (priority 2019, dated 2025).
One block for each compound: values may come before it.

Tests used:
NET [1] = molecular target: T1, NET (Homo sapiens, UniProt P23975); experiment: Competitive inhibition of 18F-AF78 uptake in SK-N-SH cells; format: cell-based; settings: percentage of control AF78 uptake
T1 construct: SK-N-SH cells expressing NET; host or cells: SK-N-SH
Method: (§1) SK-N-SH cells expressing NET were cultivated according to the instructions from the supplier (Sigma-Aldrich Chemie GmbH, Munich, Germany). The cells were transferred to a 12 well plate and incubated in 1 mL EMEM while reaching 2×10^5 cells/well density the day for testing. The medium was removed, and the cells were washed with 1 mL EMEM. A solution of ^18F-AF78 (3.7 kBq) in EMEM (700 μL) was added to each well with or without inhibitors (NE, MHPG, cold AF78 each with a final concentration 100 nM, 1 μM, 10 μM and 100 μM, respectively; Desipramine 10 μM). The plate was incubated for 60 min at 37° C. The cells were washed with ice-cold PBS buffer (1 mL×2) in order to remove unbound tracer. NaOH solution (0.1 N, 500 μL) was added to each well followed by the collection of cell pellet and the measurement in γ-counter (FH412, Frieseke & Höpfner, Erlangen, Germany) using differential energy windows (±20%) for ^18F and ^131I.
To further confirm the tracer's binding affinity, ^18F-labeled AF78 was used in competitive inhibition assay, to which different concentrations of NE, MHPG, and cold reference 2 (AF78) were added. […] Results are expressed as percentage of control AF78 uptake. […] (IC50 of MHPG vs. AF78, p value<0.05). […]

NET [2] = molecular target: T1, NET; experiment: Competitive inhibition of 131I-MIBG uptake in SK-N-SH cells expressing NET; format: cell-based; settings: for IC50: non-radioactive compounds, percent of control MIBG uptake
Method: as §1
[drawing 27] were synthesized. The compounds were tested in SK-N-SH cells expressing NET in order to evaluate their competitive binding affinity against ^131I-MIBG. […] Results are expressed as percent of control MIBG uptake. […] (IC50 of AF78 vs. MHPG p value<0.01)
NE and cold MIBG were used as references. As a result, cold reference 2 (AF78) could inhibit the cell uptake of ^131I-MIBG in a concentration-dependent manner. In contrast, cold reference 1 was not able to block the uptake of ^131I-MIBG even at the highest concentration tested. Inhibition was only 40% at 100 μM. […] The introduction of long alkyl chain at 3-position on the benzene ring seems not to be tolerated, whereas introduction at the 4-position seems to be well tolerated.

[3] = time frame of 50-60 min imaging; Raffel et al., J. Nucl. Med. 2017; cited from earlier work
NET [4] = experiment: Dynamic PET time-activity curves in Cynomolgus monkey with and without DMI pretreatment; format: in vivo
Method: For control, Cynomolgus monkey (male, 5.3 kg) was maintained anaesthetized during the imaging study using 3.3% seboflurane. Shortly before receiving an intravenous injection of the tracer (44 MBq), a 120 min dynamic PET session was started. In addition, to investigate the inhibition of cardiac neuronal uptake-1, DMI (1 mg/kg, iv.) was injected to Cynomolgus monkey (female, 5.6 kg) 10 min before the tracer (18.2 MBq) injection and PET assessment started. PET was conducted using a PCA-2000A positron scanner (Toshiba Medical Systems Corporation, Otawara, Japan). Sinograms were collected with the following pattern: 10 sec×12, 30 sec×6, 300 sec×23. The tissue uptake was determined as arbitrary unit (A.U.), from which a time-activity curves of different organs were generated.
A tissue bio-distribution consistent with that observed in rat could be observed with clear long term and stable cardiac uptake during the total 120 min scan whereas uptake in adjacent liver and lungs was low. Representative time activity curves derived from ^18F-AF78 dynamic images in control and sympathetic nerve blocked monkey were generated from the scanning data. […] In the control, activity in the liver reached a peak a little while after the tracer injection, then decreased slowly to blood level after 60 min.

NET [5] = molecular target: T2, NET (Rattus norvegicus, UniProt Q63380); experiment: Cardiac PET imaging in healthy rats with and without NET blockade; format: in vivo
T2 construct: tissue Japan SLC, Inc., Japan (animals); host or cells: heart (myocardium) of healthy male Wistar rats, in vivo
T2 sequence (Q63380 1-617): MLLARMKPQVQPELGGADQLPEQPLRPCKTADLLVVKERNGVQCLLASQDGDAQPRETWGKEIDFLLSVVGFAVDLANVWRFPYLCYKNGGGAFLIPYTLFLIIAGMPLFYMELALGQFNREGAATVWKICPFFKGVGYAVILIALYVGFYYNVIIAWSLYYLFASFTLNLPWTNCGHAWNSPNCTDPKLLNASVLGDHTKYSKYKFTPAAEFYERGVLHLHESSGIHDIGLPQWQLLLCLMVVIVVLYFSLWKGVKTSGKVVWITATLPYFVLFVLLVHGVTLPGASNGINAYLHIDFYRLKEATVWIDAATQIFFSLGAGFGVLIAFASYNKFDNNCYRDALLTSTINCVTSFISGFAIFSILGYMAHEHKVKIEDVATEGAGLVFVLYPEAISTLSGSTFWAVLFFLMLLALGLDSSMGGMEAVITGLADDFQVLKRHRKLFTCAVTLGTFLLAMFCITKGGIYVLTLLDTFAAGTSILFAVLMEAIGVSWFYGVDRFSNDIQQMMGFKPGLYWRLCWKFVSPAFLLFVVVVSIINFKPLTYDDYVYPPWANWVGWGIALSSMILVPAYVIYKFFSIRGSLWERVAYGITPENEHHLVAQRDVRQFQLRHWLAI
Source text: Rats were maintained anaesthetized during the whole experiment by 2% isoflurane. All scans were obtained using a dedicated small-animal PET system (microPET FOCUS 120, SIEMENS, Germany). The PET imaging protocol was designed to assess the systemic and myocardial tracer distribution of ^18F-AF78. Shortly before the injection of 10-20 MBq of ^18F-AF78 via the tail vein, a dynamic PET scan was initiated. In order to evaluate the cardiac uptake mechanism of the tracer, rats were pretreated with phenoxybenzamine (50 mg/kg intravenously, Sigma-Aldrich, Tokyo, Japan). Ten minutes after the pretreatment, 10-20 MBq of ^18F-AF78 was administered via the tail vein. A 10 min dynamic PET session was started shortly before the tracer injection. PET image was acquired in list-mode format. The data were sorted into 3-dimensional sonograms, which were then rebind with a Fourier algorithm to reconstruct dynamic images using a 2-dimensional ordered-subset expectation maximization (OSEM) algorithm. All images were corrected for ^18F decay, random, and dead time; correction for attenuation was not performed (Higuchi JNM 2013). The obtained PET images were analyzed with the public domain tool AMIDE imaging software (A Medical Imaging Data Examiner, version 1.01). […]

NET [6] = molecular target: T2, NET; experiment: Ex vivo tissue counting study (heart/tissue distribution ratio) with and without NET blockade; format: in vivo; settings: rats
Method: (§2) Standard protocols and data analysis methods for non-invasive PET imaging of small animals have been established in the working group of the inventors (Rischpler C. et al., Eur J Nucl Med Mol Imaging. 2013; 40(7): 1077-83). Healthy male Wistar rats (Japan SLC, Inc., Japan) each weighing 200-250 g were used. The rats are anaesthetized with 2% isoflurane. 10-20 MBq of the tracer was administered via tail vein injection. Ten minutes after the tracer administration, the animals were immediately euthanized. Hearts, livers and blood were obtained for ex vivo analysis with autoradiography (Typhoon FLA 7000) and tissue counts with γ-counter (1480 WIZARD™ 3″). Following weight and decay correction of tissue counts, the heart to blood (H/B) and heart to liver (H/L) count ratio were calculated, respectively. For autoradiography, the rats were first injected via tail vein either with or without (control) NET blocker phenoxynezamine 50 mg/kg after anaesthesia. After 10 min, the tracer (10-20 MBq) was administered. The hearts were harvested 10 min later, frozen, and cut into 20 μm short axis slices using a cryostat (Cryotome FSE, Thermo Fisher Scientific). To obtain the distribution of the tracer, autoradiography plates (Fuji SR-type image plate, Fujifilm Corporation, Tokyo, Japan) were exposed to the short axis slices immediately for 18 h and thereafter imaged using a digital autoradiographic system (Typhoon FLA 7000).
The columns are the mean value of 2 rats. Data were determined 10 min post injection. Y-axis represents the heart/tissue distribution ratio. […] In comparison, according to Raffel, D. et al., J. Nucl. Med. 2017, 58 (Suppl 1): 96 MHPG and PHPG show tissue concentration ratios at a time frame of 50-60 min imaging as follows: MHPG with H/B 3.6 and H/L 2.3; PHPG with 5.4 and 1.1, respectively.

NET [7] = molecular target: T1, NET; experiment: Tracer cell uptake in SK-N-SH cells with and without NET inhibitor desipramine (DMI); format: cell-based; settings: desipramine 10 μM, 60 min at 37° C.
Method: as §1
After successful radiolabeling, ^18F-AF78 was also tested in SK-N-SH cells in order to check cell uptake. Antidepressant desipramine (DMI) was used as the inhibitor of NET. The addition of DMI blocks cell uptake of tracers specifically transported by NET.

NET [8] = molecular target: T2, NET; experiment: Ex vivo autoradiography of left ventricular short axis slices; format: in vivo
Method: as §2, with “To obtain the distribution of the tracer, autoradiography plates (Fuji SR-type image plate, Fujifilm Corporation, Tokyo, Japan) were exposed to the short axis slices immediately for 18 h and thereafter imaged using a digital autoradiographic system (Typhoon FLA 7000).” left out

[9] = Static PET images of cardiac uptake in several species; format: in vivo; settings: healthy rats, rabbits, pigs and monkeys
[10] = Biodistribution study (SUV) in monkey; format: in vivo
Method: A further biodistribution study with ^18F-AF78 in monkey has been conducted. […] The liver uptake is decreasing and is lower than cardiac uptake 35 min after tracer administration.

NET [11] = experiment: Kinetic study in monkeys' hearts (DMI blocking, DMI chase, tyramine chase); format: in vivo, monkey
Source text: A kinetic study has been performed with ^18F-AF78 in monkeys' hearts. The results confirmed the specific uptake of ^18F-AF78 via NET and stable vesicular storage mechanism in the sympathetic nerve terminals. […] Furthermore, a continuous tyramine (TYR) chase was applied after tracer administration. Tyramine is known as agent causing a catecholamine release thus enhancing tracer washout. […] Decrease was statistically significant (p<0.005) compared to control group (FIG. 18, lower panel).

[12] = 10 min post injection, control, mean of 2 rats
[13] = PhB 50 mg/kg 10 min before tracer, 10 min post injection

T1 sequence (P23975 whole entry): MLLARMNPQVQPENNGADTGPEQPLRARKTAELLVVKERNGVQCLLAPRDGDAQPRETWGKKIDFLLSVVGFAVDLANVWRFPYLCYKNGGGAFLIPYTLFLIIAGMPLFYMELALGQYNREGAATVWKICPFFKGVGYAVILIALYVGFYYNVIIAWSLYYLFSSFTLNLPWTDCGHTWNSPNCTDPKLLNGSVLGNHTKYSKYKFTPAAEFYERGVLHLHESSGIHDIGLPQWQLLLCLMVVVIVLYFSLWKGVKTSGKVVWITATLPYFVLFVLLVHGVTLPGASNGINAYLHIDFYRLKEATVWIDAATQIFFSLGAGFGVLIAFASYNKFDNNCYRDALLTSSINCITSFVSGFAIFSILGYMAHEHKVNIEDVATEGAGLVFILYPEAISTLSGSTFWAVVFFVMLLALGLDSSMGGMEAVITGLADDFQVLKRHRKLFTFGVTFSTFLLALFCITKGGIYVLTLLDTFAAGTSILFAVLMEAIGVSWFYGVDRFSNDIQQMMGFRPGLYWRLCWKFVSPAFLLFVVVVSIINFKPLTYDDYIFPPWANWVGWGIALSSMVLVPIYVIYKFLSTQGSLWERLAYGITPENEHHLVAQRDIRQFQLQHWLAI

Compound: N=C(N)NCCc1ccc(OCCCF)c(F)c1 [AF78]
- IC50 (NET [1]): 2680 ± 830 nM
- IC50 (NET [2]): 2570 ± 1370 nM

Compound: N=C(N)NCCc1ccc(O)c([18F])c1 [PHPG, ^18F-3-fluoro-4-hydroxyphenethylguanidine]
- H/B tissue concentration ratio [3]: 5.4
- H/L tissue concentration ratio [3]: 1.1

Compound: NC(N)=NCCc1ccc(OCCC[18F])c(F)c1 [^18F-AF78]
- Time after which liver activity decreased to blood level (NET [4]; control monkey): 60 min
- Cardiac uptake over scan time (NET [4]; control monkey, 120 min dynamic PET): maintained activity throughout the entire 120 min scan time
- Liver uptake after DMI pretreatment (NET [4]; monkey, DMI 1 mg/kg iv): not affected by pretreatment with DMI
- Heart uptake after DMI pretreatment (NET [4]; monkey, DMI 1 mg/kg iv 10 min before tracer): markedly reduced the heart uptake level
- Myocardial tracer uptake after NET blockade, static PET images (NET [5]; PhB 50 mg/kg iv 10 min before tracer): significantly decreased the myocardial tracer uptake
- Myocardial tracer uptake, static PET images (NET [5]; no pretreatment): homogeneous and clear tracer uptake throughout the left ventricular wall
- Heart-to-Blood (H/B) ratio (NET [6]; [12]): 12.54
- Heart-to-Liver (H/L) ratio (NET [6]; [12]): 6.14
- Decline in the H/B ratio by PhB (NET [6]; PhB 50 mg/kg): approximately 6 fold
- Decline in the H/L ratio by PhB (NET [6]; PhB 50 mg/kg): ~5 fold
- Heart-to-Blood (H/B) ratio after NET blockade (NET [6]; [13]): 2.41
- Heart-to-Liver (H/L) ratio after NET blockade (NET [6]; [13]): 1.30
- Tracer uptake inhibited by the addition of DMI (NET [7]): 94%
- Tracer distribution in myocardium (autoradiography) (NET [8]; rat LVSA slices, control): homogeneous tracer uptake throughout the left ventricular walls
- Tracer distribution after PhB pretreatment (autoradiography) (NET [8]; rat, PhB 50 mg/kg i.v. 10 min before tracer): could be inhibited by a pretreatment with phenoxybenzamine
- Cardiac uptake in static PET images across species [9]: works in all of these species
- Biodistribution (SUV) result [10]: stable cardiac uptake along with fast blood pool washout and relative fast liver uptake washout
- Time after tracer administration at which liver uptake is lower than cardiac uptake [10]: 35 min
- Cardiac tracer uptake with DMI chase vs control (NET [11]; DMI injected 10 min after tracer): no difference can be seen compared to control group
- Cardiac tracer uptake with DMI blocking vs control (NET [11]; DMI injected 10 min before tracer): specifically blocked the tracer uptake with significant difference
- Cardiac tracer uptake with tyramine chase vs control (NET [11]; continuous tyramine chase after tracer): decreased considerable

Compound: N=C(N)NCc1cccc([131I])c1 [^131I-MIBG, ^123/131I-meta-iodobenzylguanidine, reference compound]
- Tracer uptake inhibited by the addition of DMI (NET [7]): 87%

- inhibition at 100 µM (NET [2]; at 100 μM (highest concentration tested)): 40%
Compound: N=C(N)NCCc1ccc(F)c(OCCCF)c1 [cold reference 1]

Compound: ^18F-4-fluoro-3-hydroxyphenethylguanidine [MHPG]
- IC50 (NET [1]): 850 ± 630 nM
- H/B tissue concentration ratio [3]: 3.6
- H/L tissue concentration ratio [3]: 2.3
- IC50 (NET [2]): 6800 ± 730 nM
